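Method: 48-hour compound exposure of cells in 96-well plates, five concentrations, linear interpolation of endpoints. TGI: concentration producing complete growth inhibition.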
How the values were obtained:
Experiment in all cases: NCI-60 cell line screen, 48 h
K-562 leukemia = test system: K-562 leukemia
HOP-18 NSCLC = test system: HOP-18 NSCLC
SN12C renal = test system: SN12C renal
MOLT-4 leukemia = test system: MOLT-4 leukemia
KM20L2 colon = test system: KM20L2 colon
NCI-H522 lung = test system: NCI-H522 lung
DMS 273 small cell lung = test system: DMS 273 small cell lung
UO-31 renal = test system: UO-31 renal
HT29 colon = test system: HT29 colon
CCRF-CEM leukemia = test system: CCRF-CEM leukemia
LOX IMVI melanoma = test system: LOX IMVI melanoma
HCT-116 colon = test system: HCT-116 colon
NCI-H23 lung = test system: NCI-H23 lung
COLO 205 colon = test system: COLO 205 colon
HCT-15 colon = test system: HCT-15 colon
RXF 393 renal = test system: RXF 393 renal
SK-OV-3 ovarian = test system: SK-OV-3 ovarian
OVCAR-8 ovarian = test system: OVCAR-8 ovarian
DLD-1 colon = test system: DLD-1 colon
SF-539 CNS = test system: SF-539 CNS
A549 NSCLC = test system: A549 NSCLC
M14 melanoma = test system: M14 melanoma
SK-MEL-2 melanoma = test system: SK-MEL-2 melanoma
IGROV1 ovarian = test system: IGROV1 ovarian
786-0 renal = test system: 786-0 renal
SNB-19 CNS = test system: SNB-19 CNS
NCI-H226 lung = test system: NCI-H226 lung
SK-MEL-28 melanoma = test system: SK-MEL-28 melanoma
NCI-H460 lung = test system: NCI-H460 lung
ACHN renal = test system: ACHN renal
RPMI-8226 leukemia = test system: RPMI-8226 leukemia
MALME-3M melanoma = test system: MALME-3M melanoma
M19-MEL melanoma = test system: M19-MEL melanoma
SNB-75 CNS = test system: SNB-75 CNS
TK-10 renal = test system: TK-10 renal
SF-295 CNS = test system: SF-295 CNS
XF 498 CNS = test system: XF 498 CNS
HOP-62 NSCLC = test system: HOP-62 NSCLC
SK-MEL-5 melanoma = test system: SK-MEL-5 melanoma
UACC-257 melanoma = test system: UACC-257 melanoma
KM12 colon = test system: KM12 colon
EKVX NSCLC = test system: EKVX NSCLC
OVCAR-3 ovarian = test system: OVCAR-3 ovarian
HL-60(TB) leukemia = test system: HL-60(TB) leukemia
U251 CNS = test system: U251 CNS
DMS 114 small cell lung = test system: DMS 114 small cell lung
SW-620 colon = test system: SW-620 colon
UACC-62 melanoma = test system: UACC-62 melanoma
HS 578T breast = test system: HS 578T breast
MDA-N = test system: MDA-N
CAKI-1 renal = test system: CAKI-1 renal
A498 renal = test system: A498 renal
HCC-2998 colon = test system: HCC-2998 colon
PC-3 prostate = test system: PC-3 prostate
DU-145 prostate = test system: DU-145 prostate
OVCAR-5 ovarian = test system: OVCAR-5 ovarian
SR leukemia = test system: SR leukemia
MDA-MB-231 breast = test system: MDA-MB-231 breast
NCI/ADR-RES ovarian = test system: NCI/ADR-RES ovarian
OVCAR-4 ovarian = test system: OVCAR-4 ovarian
BT-549 breast = test system: BT-549 breast
T-47D breast = test system: T-47D breast
HOP-92 NSCLC = test system: HOP-92 NSCLC
SF-268 CNS = test system: SF-268 CNS
MDA-MB-435 = test system: MDA-MB-435
MCF7 breast = test system: MCF7 breast

## O=C(Nc1cc(Cl)ccc1Cl)c1cc2cccc(Br)c2oc1=O
K-562 leukemia
  TGI: > 100 µM
HOP-18 NSCLC
  TGI: > 100 µM
SN12C renal
  TGI: > 100 µM
MOLT-4 leukemia
  TGI: > 100 µM
KM20L2 colon
  TGI: > 100 µM
NCI-H522 lung
  TGI: > 100 µM
DMS 273 small cell lung
  TGI: > 100 µM
UO-31 renal
  TGI: > 100 µM
HT29 colon
  TGI: > 100 µM
CCRF-CEM leukemia
  TGI: > 100 µM
LOX IMVI melanoma
  TGI: > 100 µM
HCT-116 colon
  TGI: > 100 µM
NCI-H23 lung
  TGI: > 100 µM
COLO 205 colon
  TGI: > 100 µM
HCT-15 colon
  TGI: > 100 µM
RXF 393 renal
  TGI: > 100 µM
SK-OV-3 ovarian
  TGI: > 100 µM
OVCAR-8 ovarian
  TGI: > 100 µM
DLD-1 colon
  TGI: > 100 µM
SF-539 CNS
  TGI: > 100 µM
A549 NSCLC
  TGI: > 100 µM
M14 melanoma
  TGI: > 100 µM
SK-MEL-2 melanoma
  TGI: > 100 µM
IGROV1 ovarian
  TGI: > 100 µM
786-0 renal
  TGI: > 100 µM
SNB-19 CNS
  TGI: > 100 µM
NCI-H226 lung
  TGI: > 100 µM
SK-MEL-28 melanoma
  TGI: > 100 µM
NCI-H460 lung
  TGI: > 100 µM
ACHN renal
  TGI: > 100 µM
RPMI-8226 leukemia
  TGI: > 100 µM
MALME-3M melanoma
  TGI: > 100 µM
M19-MEL melanoma
  TGI: > 100 µM
SNB-75 CNS
  TGI: > 100 µM
TK-10 renal
  TGI: > 100 µM
SF-295 CNS
  TGI: > 100 µM
XF 498 CNS
  TGI: 72.6 µM
HOP-62 NSCLC
  TGI: > 100 µM
SK-MEL-5 melanoma
  TGI: > 100 µM
UACC-257 melanoma
  TGI: > 100 µM
KM12 colon
  TGI: > 100 µM
EKVX NSCLC
  TGI: > 100 µM
OVCAR-3 ovarian
  TGI: > 100 µM
HL-60(TB) leukemia
  TGI: > 100 µM
U251 CNS
  TGI: > 100 µM
DMS 114 small cell lung
  TGI: > 100 µM
SW-620 colon
  TGI: > 100 µM
UACC-62 melanoma
  TGI: > 100 µM

## c1ccc(C(c2cccc3c2ccc2ccccc23)C(c2ccccc2)c2cccc3c2ccc2ccccc23)cc1 (configuration not stated)
K-562 leukemia
  TGI: > 100 µM
HS 578T breast
  TGI: > 100 µM
SN12C renal
  TGI: > 100 µM
MOLT-4 leukemia
  TGI: > 100 µM
MDA-N
  TGI: > 100 µM
NCI-H522 lung
  TGI: > 100 µM
UO-31 renal
  TGI: > 100 µM
HT29 colon
  TGI: > 100 µM
CAKI-1 renal
  TGI: > 100 µM
CCRF-CEM leukemia
  TGI: > 100 µM
LOX IMVI melanoma
  TGI: > 100 µM
HCT-116 colon
  TGI: > 100 µM
A498 renal
  TGI: > 100 µM
HCC-2998 colon
  TGI: > 100 µM
NCI-H23 lung
  TGI: > 100 µM
COLO 205 colon
  TGI: > 100 µM
HCT-15 colon
  TGI: > 100 µM
RXF 393 renal
  TGI: > 100 µM
SK-OV-3 ovarian
  TGI: > 100 µM
OVCAR-8 ovarian
  TGI: > 100 µM
SF-539 CNS
  TGI: > 100 µM
A549 NSCLC
  TGI: > 100 µM
M14 melanoma
  TGI: > 100 µM
SK-MEL-2 melanoma
  TGI: > 100 µM
PC-3 prostate
  TGI: > 100 µM
IGROV1 ovarian
  TGI: > 100 µM
786-0 renal
  TGI: > 100 µM
SNB-19 CNS
  TGI: > 100 µM
DU-145 prostate
  TGI: > 100 µM
NCI-H226 lung
  TGI: > 100 µM
SK-MEL-28 melanoma
  TGI: > 100 µM
NCI-H460 lung
  TGI: > 100 µM
OVCAR-5 ovarian
  TGI: > 100 µM
ACHN renal
  TGI: > 100 µM
SR leukemia
  TGI: > 100 µM
MDA-MB-231 breast
  TGI: > 100 µM
NCI/ADR-RES ovarian
  TGI: > 100 µM
RPMI-8226 leukemia
  TGI: > 100 µM
OVCAR-4 ovarian
  TGI: > 100 µM
MALME-3M melanoma
  TGI: > 100 µM
BT-549 breast
  TGI: > 100 µM
T-47D breast
  TGI: > 100 µM
HOP-92 NSCLC
  TGI: > 100 µM
SNB-75 CNS
  TGI: > 100 µM
SF-268 CNS
  TGI: > 100 µM
TK-10 renal
  TGI: > 100 µM
SF-295 CNS
  TGI: > 100 µM
MDA-MB-435
  TGI: > 100 µM
HOP-62 NSCLC
  TGI: > 100 µM
SK-MEL-5 melanoma
  TGI: > 100 µM
UACC-257 melanoma
  TGI: > 100 µM
KM12 colon
  TGI: > 100 µM
EKVX NSCLC
  TGI: > 100 µM
OVCAR-3 ovarian
  TGI: > 100 µM
HL-60(TB) leukemia
  TGI: > 100 µM
MCF7 breast
  TGI: > 100 µM
U251 CNS
  TGI: > 100 µM
SW-620 colon
  TGI: > 100 µM
UACC-62 melanoma
  TGI: > 100 µM

Reference: PubChem BioAssay (NCI)
